Measurements published in patent US20210079443A1, “INDICATOR BAC[…] SELECTING AND […] EFFICACY OF THERAPEUTICS AND METHODS FOR USING SAME” (priority 2018, published 2021).

Key:
Assay in all cases: Phage-Mediated Detection of Staphylococcus aureus
Format in all cases: cell-based
[1] = test system: Staphylococcus aureus strain AR0461 (MRSA, CDC Panel)
Experimental: (§1) Samples of methicillin-resistant S. aureus (MRSA) were primed by adding 135 μl of samples containing S. aureus to rich media. The rich media included sub-inhibitory antibiotic (cefoxitin) to allow for specific enrichment and induction of MRSA. Samples were incubated in rich media for 1-2 hours. Following the priming of the samples, additional cefoxitin was added to the media and samples were incubated for an additional 2 hours. Staphylococcus aureus-specific bacteriophage NanoLuc Indicator phage was added to the samples and incubated for 2 hours. Lysis buffer and NANO-GLO® reagent were added. Following 5 minutes of incubation, measurements of bioluminescence were taken using a GLOMAX® 96 instrument. A signal/background ratio ≥750 RLU indicated positive detection of S. aureus. A signal/background ratio of <750 RLU indicated the sample was negative for S. aureus.

[2] = test system: Staphylococcus aureus strain AR0467 (MRSA, CDC Panel)
Experimental: as §1

[3] = test system: Staphylococcus aureus strain AR0469 (MRSA, CDC Panel)
Experimental: as §1

[4] = test system: Staphylococcus aureus strain AR0474 (MRSA, CDC Panel)
Experimental: as §1

[5] = test system: Staphylococcus aureus strain AR0475 (MRSA, CDC Panel)
Experimental: as §1

[6] = test system: Staphylococcus aureus strain AR0476 (MRSA, CDC Panel)
Experimental: as §1

[7] = test system: Staphylococcus aureus strain AR0478 (MRSA, CDC Panel)
Experimental: as §1

[8] = test system: Staphylococcus aureus strain AR0479 (MRSA, CDC Panel)
Experimental: as §1

[9] = test system: Staphylococcus aureus strain AR0480 (MRSA, CDC Panel)
Experimental: as §1

[10] = test system: Staphylococcus aureus strain AR0483 (MRSA, CDC Panel)
Experimental: as §1

[11] = test system: Staphylococcus aureus strain AR0484 (MSSA, CDC Panel)
Experimental: as §1

[12] = test system: Staphylococcus aureus strain AR0490 (MSSA, CDC Panel)
Experimental: as §1

[13] = test system: Staphylococcus aureus strain BAA-2094 (MRSA, ATCC)
Experimental: as §1

## CO[C@@]1(NC(=O)Cc2cccs2)C(=O)N2C(C(=O)O)=C(COC(N)=O)CS[C@@H]21 [Cefoxitin, cefoxitin]
[1]; detected CFU 25, cefoxitin 1 ug/mL
  Cefoxitin Concentration 1 ug/mL (indicator phage luminescence signal): 3460 RLU
[1]; detected CFU 25, cefoxitin 2 ug/mL
  Cefoxitin Concentration 2 ug/mL (indicator phage luminescence signal): 1846 RLU
[1]; detected CFU 25, cefoxitin 4 ug/mL
  Cefoxitin Concentration 4 ug/mL (indicator phage luminescence signal): 910 RLU
[2]; detected CFU 171, cefoxitin 1 ug/mL
  Cefoxitin Concentration 1 ug/mL (indicator phage luminescence signal): 9908 RLU
[2]; detected CFU 171, cefoxitin 2 ug/mL
  Cefoxitin Concentration 2 ug/mL (indicator phage luminescence signal): 6497 RLU
[2]; detected CFU 171, cefoxitin 4 ug/mL
  Cefoxitin Concentration 4 ug/mL (indicator phage luminescence signal): 4401 RLU
[3]; detected CFU 523, cefoxitin 1 ug/mL
  Cefoxitin Concentration 1 ug/mL (indicator phage luminescence signal): 35110 RLU
[3]; detected CFU 523, cefoxitin 2 ug/mL
  Cefoxitin Concentration 2 ug/mL (indicator phage luminescence signal): 22030 RLU
[3]; detected CFU 523, cefoxitin 4 ug/mL
  Cefoxitin Concentration 4 ug/mL (indicator phage luminescence signal): 9007 RLU
[4]; detected CFU 477, cefoxitin 1 ug/mL
  Cefoxitin Concentration 1 ug/mL (indicator phage luminescence signal): 3449 RLU
[4]; detected CFU 477, cefoxitin 2 ug/mL
  Cefoxitin Concentration 2 ug/mL (indicator phage luminescence signal): 2235 RLU
[4]; detected CFU 477, cefoxitin 4 ug/mL
  Cefoxitin Concentration 4 ug/mL (indicator phage luminescence signal): 1684 RLU
[5]; detected CFU 134, cefoxitin 1 ug/mL
  Cefoxitin Concentration 1 ug/mL (indicator phage luminescence signal): 52460 RLU
[5]; detected CFU 134, cefoxitin 2 ug/mL
  Cefoxitin Concentration 2 ug/mL (indicator phage luminescence signal): 57660 RLU
[5]; detected CFU 134, cefoxitin 4 ug/mL
  Cefoxitin Concentration 4 ug/mL (indicator phage luminescence signal): 34040 RLU
[6]; detected CFU 95, cefoxitin 1 ug/mL
  Cefoxitin Concentration 1 ug/mL (indicator phage luminescence signal): 245000 RLU
[6]; detected CFU 95, cefoxitin 2 ug/mL
  Cefoxitin Concentration 2 ug/mL (indicator phage luminescence signal): 52910 RLU
[6]; detected CFU 95, cefoxitin 4 ug/mL
  Cefoxitin Concentration 4 ug/mL (indicator phage luminescence signal): 21 RLU
[7]; detected CFU 183, cefoxitin 1 ug/mL
  Cefoxitin Concentration 1 ug/mL (indicator phage luminescence signal): 279700 RLU
[7]; detected CFU 183, cefoxitin 2 ug/mL
  Cefoxitin Concentration 2 ug/mL (indicator phage luminescence signal): 73090 RLU
[7]; detected CFU 183, cefoxitin 4 ug/mL
  Cefoxitin Concentration 4 ug/mL (indicator phage luminescence signal): 1519 RLU
[8]; detected CFU 52, cefoxitin 1 ug/mL
  Cefoxitin Concentration 1 ug/mL (indicator phage luminescence signal): 51560 RLU
[8]; detected CFU 52, cefoxitin 2 ug/mL
  Cefoxitin Concentration 2 ug/mL (indicator phage luminescence signal): 34730 RLU
[8]; detected CFU 52, cefoxitin 4 ug/mL
  Cefoxitin Concentration 4 ug/mL (indicator phage luminescence signal): 6803 RLU
[9]; detected CFU 356, cefoxitin 1 ug/mL
  Cefoxitin Concentration 1 ug/mL (indicator phage luminescence signal): 1038000 RLU
[9]; detected CFU 356, cefoxitin 2 ug/mL
  Cefoxitin Concentration 2 ug/mL (indicator phage luminescence signal): 430200 RLU
[9]; detected CFU 356, cefoxitin 4 ug/mL
  Cefoxitin Concentration 4 ug/mL (indicator phage luminescence signal): 127400 RLU
[10]; detected CFU 12, cefoxitin 1 ug/mL
  Cefoxitin Concentration 1 ug/mL (indicator phage luminescence signal): 39250 RLU
[10]; detected CFU 12, cefoxitin 2 ug/mL
  Cefoxitin Concentration 2 ug/mL (indicator phage luminescence signal): 24390 RLU
[10]; detected CFU 12, cefoxitin 4 ug/mL
  Cefoxitin Concentration 4 ug/mL (indicator phage luminescence signal): 9081 RLU
[11]; detected CFU 525, cefoxitin 1 ug/mL
  Cefoxitin Concentration 1 ug/mL (indicator phage luminescence signal): 8875 RLU
[11]; detected CFU 525, cefoxitin 2 ug/mL
  Cefoxitin Concentration 2 ug/mL (indicator phage luminescence signal): 172 RLU
[11]; detected CFU 525, cefoxitin 4 ug/mL
  Cefoxitin Concentration 4 ug/mL (indicator phage luminescence signal): 182 RLU
[12]; detected CFU 940, cefoxitin 1 ug/mL
  Cefoxitin Concentration 1 ug/mL (indicator phage luminescence signal): 40620 RLU
[12]; detected CFU 940, cefoxitin 2 ug/mL
  Cefoxitin Concentration 2 ug/mL (indicator phage luminescence signal): 254 RLU
[12]; detected CFU 940, cefoxitin 4 ug/mL
  Cefoxitin Concentration 4 ug/mL (indicator phage luminescence signal): 582 RLU
[13]; detected CFU 147, cefoxitin 1 ug/mL
  Cefoxitin Concentration 1 ug/mL (indicator phage luminescence signal): 252900 RLU
[13]; detected CFU 147, cefoxitin 2 ug/mL
  Cefoxitin Concentration 2 ug/mL (indicator phage luminescence signal): 96700 RLU
[13]; detected CFU 147, cefoxitin 4 ug/mL
  Cefoxitin Concentration 4 ug/mL (indicator phage luminescence signal): 1971 RLU
